Measured values published in article PMC8228849, “Characterization of the Highly Efficient Acid-Stable Xylanase and β-Xylosidase System from the Fungus Byssochlamys spectabilis ATHUM 8891 (Paecilomyces variotii ATHUM 8891)” (Journal of Fungi, 2021).
Values belong to the molecule of their own block, whether it stands above or below them.

What was measured:
PvXyd3A = biological target: T1, PvXyd3A (Paecilomyces variotii, UniProt A0A443HSR8); assay: pNP-X hydrolysis initial rates, Lineweaver-Burk; type: biochemical; details: competitive; substrate pNP-X; xylose at 5, 20 and 50 mM; methods text misprints the enzyme as Xyn3A
T1 construct: gene C8Q69DRAFT_305813; native secreted enzyme purified from culture supernatant (Brewer's Spent Grain); 78 kDa; pI between 3 and 4; GH3; once misprinted PvXyd11A
T1 sequence (A0A443HSR8 28-800): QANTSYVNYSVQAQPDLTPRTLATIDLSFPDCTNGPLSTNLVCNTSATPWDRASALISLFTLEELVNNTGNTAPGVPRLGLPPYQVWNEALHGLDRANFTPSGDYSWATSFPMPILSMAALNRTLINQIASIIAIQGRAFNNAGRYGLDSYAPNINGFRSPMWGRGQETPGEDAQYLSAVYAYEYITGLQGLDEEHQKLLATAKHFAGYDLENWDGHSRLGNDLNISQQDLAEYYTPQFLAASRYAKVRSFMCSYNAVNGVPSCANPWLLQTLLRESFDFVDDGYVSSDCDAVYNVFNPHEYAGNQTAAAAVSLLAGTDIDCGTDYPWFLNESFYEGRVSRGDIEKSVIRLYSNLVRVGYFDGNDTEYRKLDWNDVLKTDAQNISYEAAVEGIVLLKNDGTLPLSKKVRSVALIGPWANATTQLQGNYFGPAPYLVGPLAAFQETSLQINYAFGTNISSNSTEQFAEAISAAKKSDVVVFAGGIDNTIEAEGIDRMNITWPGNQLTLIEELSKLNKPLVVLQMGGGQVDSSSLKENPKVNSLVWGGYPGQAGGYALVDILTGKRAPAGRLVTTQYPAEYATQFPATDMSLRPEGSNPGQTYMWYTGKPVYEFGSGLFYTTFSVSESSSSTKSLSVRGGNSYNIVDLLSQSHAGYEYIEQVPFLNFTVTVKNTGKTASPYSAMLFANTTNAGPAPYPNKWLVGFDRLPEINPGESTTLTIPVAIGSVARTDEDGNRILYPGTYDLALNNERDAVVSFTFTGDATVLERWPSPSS

purified protein = substrate: O=[N+]([O-])c1ccc(O[C@@H]2OC[C@@H](O)[C@H](O)[C@H]2O)cc1; assay: purified protein; type: biochemical, Paecilomyces variotii; details: standard assay pH 4 citrate-phosphate, 50 °C, 0.1-20 mM pNP-X, Table 4 prints 0.45 ± 0.06 mM

Ki (PvXyd3A): 10.2 mM
Molecule: OC1OC[C@@H](O)[C@H](O)[C@H]1O (some centres unmarked) [X1, xylose]

B1: PvXyd3A (Paecilomyces variotii) (protein)
chain: T1 sequence (A0A443HSR8 28-800)
notes: native secreted enzyme purified from culture supernatant (Brewer's Spent Grain); 78 kDa; pI between 3 and 4; GH3; once misprinted PvXyd11A
Km (purified protein): 480 ± 60 µM
